Reference: patent US6274715A, “Tricyclic erythromycin derivatives” (priority 1997, dated 2001)
≈ marks a conversion by molar mass, not a printed value.

Experiments:
Format in all cases: cell-based
PSEUDOMONAS CEPACIA 296I = assay: In vitro antibacterial activity, MIC, BHI agar dilution; settings: P. cepacia 296I, unit assumed
ESCHERICHIA COLI KNK 437 = settings: E. coli KNK 437; BHI agar; unit assumed
CANDIDA ALBICANS CCH 442 = assay: In vitro antibacterial activity, MIC, BHI agar dilution; settings: C. albicans CCH 442, unit assumed
ESCHERICHIA COLI SS = assay: as above; settings: E. coli SS, unit assumed
[1] = test system: PROVIDENCIA STUARTII CMX 640; settings: P. stuartii CMX 640; BHI agar; unit assumed
[2] = test system: STREPTOCOCCUS BOVIS A-5169; assay: In vitro antibacterial activity, MIC, BHI agar dilution; settings: S. bovis A-5169, unit assumed
[3] = test system: STAPHYLOCOCCUS AUREUS NCTC10649M; assay: as above; settings: S. aureus NCTC10649M, unit assumed
[4] = test system: STAPHYLOCOCCUS AUREUS 1775; assay: as above; settings: S. aureus 1775, unit assumed
ESCHERICHIA COLI JUHL = settings: E. coli JUHL; BHI agar; unit assumed
[5] = test system: STAPHYLOCOCCUS EPIDERMIDIS 3519; settings: S. epidermidis 3519; BHI agar; unit assumed
[6] = test system: STREPTOCOCCUS PYOGENES EES61; assay: In vitro antibacterial activity, MIC, BHI agar dilution; settings: S. pyogenes EES61, unit assumed
[7] = test system: STAPHYLOCOCCUS AUREUS A5177; assay: as above; settings: S. aureus A5177, unit assumed
[8] = test system: PSEUDOMONAS AERUGINOSA DPHD-5263; assay: as above; settings: P. aeruginosa DPHD-5263, unit assumed
ESCHERICHIA COLI H560 = assay: as above; settings: E. coli H560, unit assumed
[9] = test system: STAPHYLOCOCCUS AUREUS CMX 642A; assay: as above; settings: S. aureus CMX 642A, unit assumed
[10] = test system: PSEUDOMONAS AERUGINOSA DPHD-2862; assay: as above; settings: P. aeruginosa DPHD-2862, unit assumed
[11] = test system: MYCOBACTERIUM SMEGMATIS ATCC 114; assay: as above; settings: M. smegmatis ATCC 114, unit assumed
STR[…] 508 = assay: as above; settings: S. agalactiae CMX 508, unit assumed
How it was run: (§1)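 MIC was read visually as the lowest drug level with no growth, a slight haze or sparsely isolated colonies relative to a compound-free growth control. Organisms were spotted at 1:100 dilution (1:10 for slow-growing strains) onto Brain Heart Infusion agar containing serial compound dilutions and incubated 20 to 24 hours at 35-37° C.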

M[…] ATCC 9341 = assay: as above; settings: M. luteus ATCC 9341, unit assumed
How it was run: as §1

EN[…] ATCC 8043 = assay: as above; settings: E. faecium ATCC 8043, unit assumed
How it was run: as §1

M[…] ATCC 4698 = assay: as above; settings: M. luteus ATCC 4698, unit assumed
How it was run: as §1

[12] = test system: STREPTOCOCCUS PYOGENES PIU 2548; assay: as above; settings: S. pyogenes PIU 2548, unit assumed
[13] = test system: PSEUDOMONAS AERUGINOSA BMH10; assay: as above; settings: P. aeruginosa BMH10, unit assumed
[14] = test system: STREPTOCOCCUS PYOGENES 930; assay: as above; settings: S. pyogenes 930, unit assumed
[15] = test system: STAPHYLOCOCCUS AUREUS ATCC 6538P; assay: as above; settings: S. aureus ATCC 6538P, 35-37° C., 20 to 24 hours, unit assumed
[16] = test system: PSEUDOMONAS AERUGINOSA K799/WT; assay: as above; settings: P. aeruginosa K799/WT, unit assumed
[17] = test system: KLEBSIELLA PNEUMONIAE ATCC 8045; assay: as above; settings: K. pneumoniae ATCC 8045, unit assumed
[18] = test system: STAPHYLOCOCCUS AUREUS CMX 553; assay: as above; settings: S. aureus CMX 553, unit assumed
ESCHERICHIA COLI DC-2 = assay: as above; settings: E. coli DC-2, unit assumed
[19] = test system: ENTEROBACTER AEROGENES ATCC 13048; assay: as above; settings: E. aerogenes ATCC 13048, unit assumed
[20] = test system: PSEUDOMONAS AERUGINOSA 5007; assay: as above; settings: P. aeruginosa 5007, unit assumed
[21] = test system: PSEUDOMONAS AERUGINOSA K799/61; assay: as above; settings: P. aeruginosa K799/61, unit assumed
[22] = test system: STAPHYLOCOCCUS AUREUS A-5278; assay: as above; settings: S. aureus A-5278, unit assumed

Structure (SMILES): CC[C@H]1OC(=O)[C@H](C)C(=O)[C@H](C)[C@@H](O[C@@H]2O[C@H](C)C[C@H](N(C)C)[C@H]2O)[C@](C)(OC)C[C@@H](C)C2=NC[C@H](CSCc3ccccc3)N3C(=O)O[C@@]1(C)[C@H]3[C@H]2C [Example 66]
- MIC (PSEUDOMONAS CEPACIA 296I): 100 µg/mL (≈ 129 µM)
- MIC (ESCHERICHIA COLI KNK 437): 25 µg/mL (≈ 32.3 µM)
- MIC (CANDIDA ALBICANS CCH 442): > 100 µg/mL
- MIC (ESCHERICHIA COLI SS): 0.39 µg/mL (≈ 0.504 µM)
- MIC [1]: > 100 µg/mL
- MIC [2]: 0.01 µg/mL (≈ 0.0129 µM)
- MIC [3]: 0.1 µg/mL (≈ 0.129 µM)
- MIC [4]: > 100 µg/mL
- MIC (ESCHERICHIA COLI JUHL): 25 µg/mL (≈ 32.3 µM)
- MIC [5]: 0.2 µg/mL (≈ 0.258 µM)
- MIC [6]: 0.01 µg/mL (≈ 0.0129 µM)
- MIC [7]: 0.1 µg/mL (≈ 0.129 µM)
- MIC [8]: 100 µg/mL (≈ 129 µM)
- MIC (ESCHERICHIA COLI H560): 12.5 µg/mL (≈ 16.1 µM)
- MIC [9]: 0.2 µg/mL (≈ 0.258 µM)
- MIC [10]: > 100 µg/mL
- MIC [11]: 0.39 µg/mL (≈ 0.504 µM)
- MIC (STR[…] 508): 0.01 µg/mL (≈ 0.0129 µM)
- MIC (M[…] ATCC 9341): 0.02 µg/mL (≈ 0.0258 µM)
- MIC (EN[…] ATCC 8043): 0.02 µg/mL (≈ 0.0258 µM)
- MIC (M[…] ATCC 4698): 0.2 µg/mL (≈ 0.258 µM)
- MIC [12]: 0.39 µg/mL (≈ 0.504 µM)
- MIC [13]: 100 µg/mL (≈ 129 µM)
- MIC [14]: > 100 µg/mL
- MIC [15]: 0.1 µg/mL (≈ 0.129 µM)
- MIC [16]: 100 µg/mL (≈ 129 µM)
- MIC [17]: > 100 µg/mL
- MIC [18]: 0.2 µg/mL (≈ 0.258 µM)
- MIC (ESCHERICHIA COLI DC-2): 12.5 µg/mL (≈ 16.1 µM)
- MIC [19]: > 100 µg/mL
- MIC [20]: > 100 µg/mL
- MIC [21]: 0.39 µg/mL (≈ 0.504 µM)
- MIC [22]: > 100 µg/mL

Structure (SMILES): CC[C@H]1OC(=O)[C@H](C)C(=O)[C@H](C)[C@@H](O[C@@H]2O[C@H](C)C[C@H](N(C)C)[C@H]2O)[C@](C)(OC)C[C@@H](C)C2=NC[C@H](Cc3cscn3)N3C(=O)O[C@@]1(C)[C@H]3[C@H]2C [Example 69]
- MIC (PSEUDOMONAS CEPACIA 296I): > 100 µg/mL
- MIC (ESCHERICHIA COLI KNK 437): > 100 µg/mL
- MIC (CANDIDA ALBICANS CCH 442): > 100 µg/mL
- MIC (ESCHERICHIA COLI SS): 0.39 µg/mL (≈ 0.531 µM)
- MIC [1]: > 100 µg/mL
- MIC [2]: 0.01 µg/mL (≈ 0.0136 µM)
- MIC [3]: 0.2 µg/mL (≈ 0.272 µM)
- MIC [4]: > 100 µg/mL
- MIC (ESCHERICHIA COLI JUHL): 100 µg/mL (≈ 136 µM)
- MIC [5]: 0.2 µg/mL (≈ 0.272 µM)
- MIC [6]: 0.02 µg/mL (≈ 0.0272 µM)
- MIC [7]: 0.2 µg/mL (≈ 0.272 µM)
- MIC [8]: > 100 µg/mL
- MIC (ESCHERICHIA COLI H560): 50 µg/mL (≈ 68 µM)
- MIC [9]: 0.39 µg/mL (≈ 0.531 µM)
- MIC [10]: > 100 µg/mL
- MIC [11]: 3.1 µg/mL (≈ 4.22 µM)
- MIC (STR[…] 508): 0.02 µg/mL (≈ 0.0272 µM)
- MIC (M[…] ATCC 9341): 0.05 µg/mL (≈ 0.068 µM)
- MIC (EN[…] ATCC 8043): 0.1 µg/mL (≈ 0.136 µM)
- MIC (M[…] ATCC 4698): 0.2 µg/mL (≈ 0.272 µM)
- MIC [12]: 0.39 µg/mL (≈ 0.531 µM)
- MIC [13]: > 100 µg/mL
- MIC [14]: > 100 µg/mL
- MIC [15]: 0.2 µg/mL (≈ 0.272 µM)
- MIC [16]: > 100 µg/mL
- MIC [17]: > 100 µg/mL
- MIC [18]: 0.2 µg/mL (≈ 0.272 µM)
- MIC (ESCHERICHIA COLI DC-2): 50 µg/mL (≈ 68 µM)
- MIC [19]: > 100 µg/mL
- MIC [20]: > 100 µg/mL
- MIC [21]: 0.78 µg/mL (≈ 1.06 µM)
- MIC [22]: > 100 µg/mL
